Where “and” joins values, the source holds several entries; their conditions need not be identical. Equal entries are not always repeated.
System: 276233-004-R-J1-PDC spheroids with HUVEC/MSC, viability
Test: Anticancer human tumor 276233-004-R-J1-PDC patient-derived colon adenocarcinoma cell line growth inhibition [TAK]
Conditions: for viability, T/C: stronger effect = lower value
Excerpt: Combinatorial screen of targeted agents with TAK-243 and ipatasertib in multi-cell type tumor spheroids
A high-throughput screen of multi-cell type tumor spheroids was designed to identify active combinations of targeted small molecules and TAK-243 or ipatasertib. Complex spheroids include a stromal component modeled by human endothelial cells (HUVEC) and fibroblasts modeled by human mesenchymal stem cells (MSCs). The concentration ranges selected for each drug and investigational agent were based upon clinically achievable concentrations if the clinical Cmax of the agent was known.
Compounds. The drugs and investigational agents: TAK-243 (785004), ipatasertib (767898), everolimus (733504), selumetinib (741078), bortezomib (756655), trametinib (758246), ixazomib (758254), vemurafenib (761431), dabrafenib (764134), sapanisertib (764658), alpelisib (765974), and copanlisib (816437), were obtained from the National Cancer Institute (NCI) Developmental Therapeutics Program Chemical Repository. The FDA-approved anticancer drug set is available from the NCI Developmental Therapeutics Program. […] The stock solutions were prepared in dimethyl sulfoxide (DMSO, Sigma-Aldrich, St. Louis, MO, cat. D2650) at 800-fold the tested concentration and stored at -70 degrees C prior to their use. All drugs and investigational agents were tested over a range starting from a high concentration at or near the clinical Cmax and decreasing in half-log increments. If the clinical Cmax for an agent had not been determined, the highest concentration tested was 10 microM.
NCI60 Cell Culture. NCI60 cell lines were obtained from the NCI Developmental Therapeutics Program Tumor Repository. For each lot of cells, the Repository performed Applied Biosystems AmpFLSTR Identifiler testing with PCR amplification to confirm consistency with the published Identifier STR profile for each cell line. Cells were kept in continuous culture for no more than 20 passages. The optimal seeding densities for each of the cell lines at each time point assessed were determined prior to performing the concentration response studies. Briefly, the NCI60 human tumor lines were grown as monolayers in RPMI 1640 medium supplemented with 10% FBS and 2 mmol/L L-glutamine.
An additional 2 lines were from the NCI60 cell line panel including melanomas, MALME-3M and SK-MEL-2. Pooled donor human umbilical vein endothelial cells (HUVEC, Lonza, cat. CC-2519) and human mesenchymal stem cells (hMSC, Lonza, cat. PT-2501) were purchased from Lonza (Walkersville, MD).
PDMR cell lines were grown in complete medium (DC medium): Dulbecco's modified Eagle's medium (DMEM)/F12 supplemented with 5% fetal bovine serum (FBS), 2 mM L-glutamine, 100 U/mL penicillin and 100 µg/ml streptomycin, 0.4 µg/ml hydrocortisone, 10 ng/ml epidermal growth factor (EGF) recombinant human protein, 24 µg/mL adenine, and 0.1 mg/mL primocin. During culture from frozen stock vials, PDMR cells were cultured in the same medium containing 10 µM Y-27632 (see Table 3). The PDCs were cultured in complete DMEM/F12 media without 10 microM Y-27632 dihydrochloride for at least two passages prior to the screen. The pooled donor HUVEC and hMSC were cultured in endothelial cell growth medium 2 (PromoCell, Heidelberg, Germany, cat. C-22011) and mesenchymal stem cell growth medium 2 (PromoCell, cat. C-28009), respectively. For all experiments, HUVEC and hMSC were used at passages </=5.
For the pre-screen, cell seeding densities were determined from a titration spanning the range from 5,000 to 313 cells per well. The mct-spheroids including 60% malignant cells, 25% HUVEC and 15% MSC dispensed as a mixture into U-bottom Ultra-Low Attachment 384-well plates (Corning, NY)
High-throughput Drug Combination Screening.
Prior to their inoculation into 384-well plates, malignant cells, HUVEC, and hMSC were removed from T flasks using TrypLE express (Thermo Fisher Scientific, cat. 12605036) and harvested by centrifugation for 5 min at 233 x g. […]

[1] = curve of first compound, second compound 0.3 µM
[2] = curve of first compound, second compound 0.949 µM
[3] = curve of first compound, second compound 3 µM
[4] = curve of first compound, second compound 9.49 µM
[5] = curve of first compound, second compound 30 µM
[6] = second compound 0.3 µM, first compound 0.316 µM
[7] = second compound 0.3 µM, first compound 1 µM
[8] = second compound 0.3 µM, first compound 3.16 µM
[9] = second compound 0.3 µM, first compound 10 µM
[10] = second compound 0.949 µM, first compound 0.316 µM
[11] = second compound 0.949 µM, first compound 1 µM
[12] = second compound 0.949 µM, first compound 3.16 µM
[13] = second compound 0.949 µM, first compound 10 µM
[14] = second compound 3 µM, first compound 0.316 µM
[15] = second compound 3 µM, first compound 1 µM
[16] = second compound 3 µM, first compound 3.16 µM
[17] = second compound 3 µM, first compound 10 µM
[18] = second compound 9.49 µM, first compound 0.316 µM
[19] = second compound 9.49 µM, first compound 1 µM
[20] = second compound 9.49 µM, first compound 3.16 µM
[21] = second compound 9.49 µM, first compound 10 µM
[22] = second compound 30 µM, first compound 0.316 µM
[23] = second compound 30 µM, first compound 1 µM
[24] = second compound 30 µM, first compound 3.16 µM
[25] = second compound 30 µM, first compound 10 µM
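Further: spheroids exposed to drugs for seven days before the viability read.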

CC(=O)Nc1cccc(-n2c(=O)n(C3CC3)c(=O)c3c(Nc4ccc(I)cc4F)n(C)c(=O)c(C)c32)c1
viability, T/C (compound 94.9 pM): 92.8% and 120%
viability, T/C (compound 0.0003 µM): 81.6% and 81.1%
viability, T/C (compound 0.000949 µM): 88.4% and 73.1%
viability, T/C (compound 0.003 µM): 70.1% and 70%
viability, T/C (compound 0.00949 µM): 61.6% and 54.3%
viability, T/C (compound 0.03 µM): 37.1% and 44.9%
IC50 (curve of compound): 0.0157 µM and 0.0297 µM

CC(C)n1nc(-c2ccc3oc(N)nc3c2)c2c(N)ncnc21
viability, T/C (compound 0.000316 µM): 104% and 103%
viability, T/C (compound 0.001 µM): 116% and 96.9%
viability, T/C (compound 0.00316 µM): 90.4% and 95.4%
viability, T/C (compound 0.01 µM): 76.1% and 71.7%
viability, T/C (compound 0.0316 µM): 82.8% and 66.4%
viability, T/C (compound 0.1 µM): 62% and 57.5%
IC50 (curve of compound): > 0.1 µM

COC1CC2CCC(C)C(O)(O2)C(=O)C(=O)N2CCCCC2C(=O)OC(C(C)CC2CCC(OCCO)C(OC)C2)CC(=O)C(C)C=C(C)C(O)C(OC)C(=O)C(C)CC(C)C=CC=CC=C1C (stereo unspecified)
viability, T/C (compound 0.000316 µM): 107% and 100%
viability, T/C (compound 0.001 µM): 94.7% and 93.2%
viability, T/C (compound 0.00316 µM): 83.6% and 81.6%
viability, T/C (compound 0.01 µM): 78.3% and 67.6%
viability, T/C (compound 0.0316 µM): 77.4% and 80.3%
viability, T/C (compound 0.1 µM): 66.3% and 64.1%
IC50 (curve of compound): > 0.1 µM

Cn1cnc2c(F)c(Nc3ccc(Br)cc3Cl)c(C(=O)NOCCO)cc21
viability, T/C (compound 0.00949 µM): 83.5% and 81.4%
viability, T/C (compound 0.03 µM): 81.7% and 79.9%
viability, T/C (compound 0.0949 µM): 62.3% and 70.2%
viability, T/C (compound 0.3 µM): 70.4% and 70.3%
viability, T/C (compound 0.949 µM): 57% and 62.4%
viability, T/C (compound 3 µM): 45.9% and 44.9%
IC50 (curve of compound): 2.1 µM and 2.19 µM

CCCS(=O)(=O)Nc1ccc(F)c(C(=O)c2c[nH]c3ncc(-c4ccc(Cl)cc4)cc23)c1F + CC(C)NCC(C(=O)N1CCN(c2ncnc3c2C(C)CC3O)CC1)c1ccc(Cl)cc1
IC50 [1]: > 100 µM
IC50 [2]: > 100 µM
IC50 [3]: > 100 µM
IC50 [4]: > 100 µM
IC50 [5]: > 100 µM
viability, T/C [6]: 83.8%
viability, T/C [7]: 99.5%
viability, T/C [8]: 96.9%
viability, T/C [9]: 102%
viability, T/C (second compound 0.3 µM, first compound 31.6 µM): 95.7%
viability, T/C (second compound 0.3 µM, first compound 100 µM): 120%
viability, T/C [10]: 86.9%
viability, T/C [11]: 89.7%
viability, T/C [12]: 86.4%
viability, T/C [13]: 69.3%
viability, T/C (second compound 0.949 µM, first compound 31.6 µM): 87.2%
viability, T/C (second compound 0.949 µM, first compound 100 µM): 86.9%
viability, T/C [14]: 72.7%
viability, T/C [15]: 77.3%
viability, T/C [16]: 91.2%
viability, T/C [17]: 76.9%
viability, T/C (second compound 3 µM, first compound 31.6 µM): 68.7%
viability, T/C (second compound 3 µM, first compound 100 µM): 74.5%
viability, T/C [18]: 63.8%
viability, T/C [19]: 70%
viability, T/C [20]: 72.2%
viability, T/C [21]: 62.8%
viability, T/C (second compound 9.49 µM, first compound 31.6 µM): 92.2%
viability, T/C (second compound 9.49 µM, first compound 100 µM): 68.8%
viability, T/C [22]: 68.4%
viability, T/C [23]: 61.8%
viability, T/C [24]: 79%
viability, T/C [25]: 72.1%
viability, T/C (second compound 30 µM, first compound 31.6 µM): 59.5%
viability, T/C (second compound 30 µM, first compound 100 µM): 63.5%

CC(C)(C)c1nc(-c2cccc(NS(=O)(=O)c3c(F)cccc3F)c2F)c(-c2ccnc(N)n2)s1 + CC(C)NCC(C(=O)N1CCN(c2ncnc3c2C(C)CC3O)CC1)c1ccc(Cl)cc1
IC50 [1]: > 10 µM
IC50 [2]: > 10 µM
IC50 [3]: > 10 µM
IC50 [4]: > 10 µM
IC50 [5]: > 10 µM
viability, T/C (second compound 0.3 µM, first compound 0.0316 µM): 109%
viability, T/C (second compound 0.3 µM, first compound 0.1 µM): 92.8%
viability, T/C [6]: 110%
viability, T/C [7]: 90.7%
viability, T/C [8]: 65.1%
viability, T/C [9]: 82.6%
viability, T/C (second compound 0.949 µM, first compound 0.0316 µM): 101%
viability, T/C (second compound 0.949 µM, first compound 0.1 µM): 96.4%
viability, T/C [10]: 86.8%
viability, T/C [11]: 84.4%
viability, T/C [12]: 73.8%
viability, T/C [13]: 71.8%
viability, T/C (second compound 3 µM, first compound 0.0316 µM): 80.6%
viability, T/C (second compound 3 µM, first compound 0.1 µM): 78.3%
viability, T/C [14]: 91.1%
viability, T/C [15]: 61.1%
viability, T/C [16]: 63.5%
viability, T/C [17]: 65.5%
viability, T/C (second compound 9.49 µM, first compound 0.0316 µM): 73.2%
viability, T/C (second compound 9.49 µM, first compound 0.1 µM): 78.8%
viability, T/C [18]: 68.2%
viability, T/C [19]: 64.7%
viability, T/C [20]: 83.1%
viability, T/C [21]: 57%
viability, T/C (second compound 30 µM, first compound 0.0316 µM): 61.9%
viability, T/C (second compound 30 µM, first compound 0.1 µM): 73.8%
viability, T/C [22]: 64.6%
viability, T/C [23]: 70.1%
viability, T/C [24]: 67.5%
viability, T/C [25]: 75.3%

CC(C)CC(NC(=O)C(Cc1ccccc1)NC(=O)c1cnccn1)B(O)O (stereo unspecified)
viability, T/C (compound 31.6 pM): 107% and 98.8%
viability, T/C (compound 0.0001 µM): 88.1% and 105%
viability, T/C (compound 0.000316 µM): 97.6% and 93.5%
viability, T/C (compound 0.001 µM): 91.4% and 106%
viability, T/C (compound 0.00316 µM): 89.8% and 112%
viability, T/C (compound 0.01 µM): 12.6% and 10%
IC50 (curve of compound): 0.00572 µM and 0.0061 µM

COc1c(OCCCN2CCOCC2)ccc2c3n(c(=NC(=O)c4cnc(N)nc4)nc12)CCN3
viability, T/C (compound 0.00316 µM): 82.5% and 97.5%
viability, T/C (compound 0.01 µM): 64.3% and 80.6%
viability, T/C (compound 0.0316 µM): 55.6% and 59.9%
viability, T/C (compound 0.1 µM): 50.8% and 57.9%
viability, T/C (compound 0.316 µM): 43.1% and 47.6%
viability, T/C (compound 1 µM): 47.2% and 63.4%
